Source: PubChem BioAssay AID328 (DTP/NCI, 2004)
Several values for one entry are separate records, joined by “and”; a condition that tells them apart may be missing. Equal values may be shown once. Inconclusive results and toxic doses are left out.

Test system: BDF1 mice, P388 leukemia ip, median survival T/C
Experiment: NCI In Vivo Anticancer Drug Screen. Data for tumor model P388 Leukemia (intraperitoneal) in B6D2F1 (BDF1) mice
Details: endpoint: median survival time, higher = longer survival
Outline: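 Each value expresses how treatment altered survival: treated-mouse outcome over vehicle-mouse outcome, both groups bearing the transplanted tumour.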

[1] = dose: 12.5 mg/kg/injection, schedule: Q04DX003 (ip), vehicle: saline
[2] = dose: 25.0 mg/kg/injection, schedule: Q04DX003 (ip), vehicle: saline
[3] = dose: 50.0 mg/kg/injection, schedule: Q01DX009 (ip), vehicle: saline
[4] = dose: 50.0 mg/kg/injection, schedule: Q04DX003 (ip), vehicle: saline
[5] = dose: 100.0 mg/kg/injection, schedule: Q01DX009 (ip), vehicle: saline
[6] = dose: 100.0 mg/kg/injection, schedule: Q04DX003 (ip), vehicle: saline
[7] = dose: 200.0 mg/kg/injection, schedule: Q04DX003 (ip), vehicle: saline with Tween-80
[8] = dose: 100.0 mg/kg/injection, schedule: Q01DX009 (ip), vehicle: saline with Tween-80
[9] = dose: 200.0 mg/kg/injection, schedule: Q01DX009 (ip), vehicle: saline with Tween-80
[10] = dose: 400.0 mg/kg/injection, schedule: Q01DX009 (ip), vehicle: saline with Tween-80
[11] = dose: 50.0 mg/kg/injection, schedule: Q01DX009 (ip), vehicle: saline with Tween-80

## NC(Cc1c[nH]c2ccc(N(CCCl)CCCl)cc12)C(=O)O (centres undefined)
dose: 0.5 mg/kg/injection, schedule: Q01DX010 (ip), vehicle: saline
  T/C: 218 % of control
dose: 1.0 mg/kg/injection, schedule: Q01DX010 (ip), vehicle: saline
  T/C: 290 % of control

## NC(=S)N/N=C/c1ncccc1F
dose: 25.0 mg/kg/injection, schedule: Q04DX003 (ip), vehicle: saline with Tween-80
  T/C: 110 % of control
dose: 50.0 mg/kg/injection, schedule: Q04DX003 (ip), vehicle: saline with Tween-80
  T/C: 119 % of control

## CC1(C)N=C(N)N=C(N)N1c1cccc(CN)c1
[1]
  T/C: 90 % of control
dose: 25.0 mg/kg/injection, schedule: Q01DX009 (ip), vehicle: saline
  T/C: 100 % of control
[2]
  T/C: 100 % of control
[3]
  T/C: 95 % of control and 105 % of control
[4]
  T/C: 100 % of control
[5]
  T/C: 90 % of control and 110 % of control
[6]
  T/C: 104 % of control

## O=NN(CCF)C(=O)NC1CCC(NC(=O)N(CCF)N=O)CC1 (centres undefined)
dose: 16.5 mg/kg/injection, schedule: Q04DX003 (ip), vehicle: saline with Tween-80
  T/C: 186 % of control
dose: 33.0 mg/kg/injection, schedule: Q04DX003 (ip), vehicle: saline with Tween-80
  T/C: 272 % of control
dose: 66.0 mg/kg/injection, schedule: Q04DX003 (ip), vehicle: saline with Tween-80
  T/C: 272 % of control
dose: 100.0 mg/kg/injection, schedule: Q04DX003 (ip), vehicle: saline with Tween-80
  T/C: 272 % of control
dose: 132.0 mg/kg/injection, schedule: Q04DX003 (ip), vehicle: alcohol
  T/C: 272 % of control
[7]
  T/C: 200 % of control

## O=C(O)c1c(Cl)cc(Cl)c(-c2c(Cl)cc(Cl)c(C(=O)O)c2Cl)c1Cl
[8]
  T/C: 112 % of control
[9]
  T/C: 108 % of control
[10]
  T/C: 108 % of control

## Cc1cc(N(C)C)c(C=O)c(C)c1C=O
dose: 100.0 mg/kg/injection, schedule: Q04DX002 (ip), vehicle: saline with Tween-80
  T/C: 113 % of control
dose: 200.0 mg/kg/injection, schedule: Q04DX002 (ip), vehicle: saline with Tween-80
  T/C: 110 % of control
dose: 400.0 mg/kg/injection, schedule: Q04DX002 (ip), vehicle: saline with Tween-80
  T/C: 87 % of control

## O=C(NC(CSC(c1ccccc1)(c1ccccc1)c1ccccc1)C(=O)O)OCc1ccccc1 (centres undefined)
[3]
  T/C: 100 % of control and 110 % of control
[5]
  T/C: 122 % of control
[6]
  T/C: 100 % of control
dose: 200.0 mg/kg/injection, schedule: Q01DX009 (ip), vehicle: saline
  T/C: 118 % of control
dose: 200.0 mg/kg/injection, schedule: Q04DX003 (ip), vehicle: saline
  T/C: 104 % of control
dose: 400.0 mg/kg/injection, schedule: Q04DX003 (ip), vehicle: saline
  T/C: 100 % of control

## O=C(Nc1ccc(Cl)cc1C(=O)c1ccccn1)c1ccccc1
[7]
  T/C: 120 % of control
dose: 400.0 mg/kg/injection, schedule: Q04DX003 (ip), vehicle: saline with Tween-80
  T/C: 110 % of control

## Cc1ccc(NC(=S)NCCc2ccccn2)cc1C
[11]
  T/C: 101 % of control and 124 % of control
[8]
  T/C: 100 % of control and 102 % of control
[9]
  T/C: 104 % of control and 106 % of control
[10]
  T/C: 100 % of control

## CC1(Cl)C(=O)NC(=O)C1Cl (centres undefined)
dose: 3.12 mg/kg/injection, schedule: Q04DX003 (ip), vehicle: saline
  T/C: 92 % of control
dose: 6.25 mg/kg/injection, schedule: Q04DX003 (ip), vehicle: saline
  T/C: 95 % of control
[1]
  T/C: 100 % of control
[2]
  T/C: 104 % of control
[4]
  T/C: 104 % of control
[6]
  T/C: 113 % of control

## COc1ccc(C2=C/C(=C3\C(=O)Oc4ccccc4C3=O)SS2)cc1
[11]
  T/C: 90 % of control
[8]
  T/C: 92 % of control
[9]
  T/C: 90 % of control
